Key:
Format in all cases: biochemical
[1] = target: T1, Vn-ExoY (Vn-ExoY^455-863) activated by G-actin-ATP/ADP-LatB (Vibrio nigripulchritudo, UniProt A0A9P1NJI6); test: cCMP synthesis, [alpha-33P]NTP assay; settings: 2 mM CTP, MgCl2, 6 uM LatB-Mg-G-actin, pH 8.0, 30 °C; labelled compound
T1 construct: gene VIBNI_0210; ExoY effector domain of MARTX toxin, residues 3455-3863, N-terminal twin-Strep-tag with PreScission site (cleaved for crystals), E. coli BL21(DE3); with rabbit skeletal muscle G-actin; with Actin, alpha skeletal muscle

[2] = target: T2, Pa-ExoY activated by F-actin (Pseudomonas aeruginosa, UniProt O85345); test: cGMP synthesis, [alpha-33P]NTP assay; settings: 2 mM GTP, MgCl2, 3 uM Mg-F-actin, pH 8.0, 30 °C; labelled compound
T2 construct: residues 20-378, N-terminal twin-Strep-tag (ST2), E. coli BL21(DE3), 44 kDa monomer; with Actin, alpha skeletal muscle

[3] = target: T2, Pa-ExoY activated by F-actin; test: cUMP synthesis, [alpha-33P]NTP assay; settings: 2 mM UTP, MgCl2, 6 uM Mg-F-actin, pH 8.0, 30 °C; labelled compound

Compound: Nc1ccn([C@@H]2O[C@H](COP(=O)(O)OP(=O)(O)OP(=O)(O)O)[C@@H](O)[C@H]2O)c(=O)n1 [CTP]
- cCMP synthesis, [alpha-33P]NTP assay [1]: cCMP synthesis catalysed by wild-type or mutants of Vn-ExoY activated by G-actin

Compound: Nc1nc2c(ncn2[C@@H]2O[C@H](COP(=O)(O)OP(=O)(O)OP(=O)(O)O)[C@@H](O)[C@H]2O)c(=O)[nH]1 [GTP]
- cGMP synthesis, [alpha-33P]NTP assay [2]: cGMP synthesis catalysed by wild-type or mutants of Pa-ExoY activated by F-actin

Compound: O=c1ccn([C@@H]2O[C@H](COP(=O)(O)OP(=O)(O)OP(=O)(O)O)[C@@H](O)[C@H]2O)c(=O)[nH]1 [UTP]
- cUMP synthesis, [alpha-33P]NTP assay [3]: cCMP and cUMP synthesis catalysed by wild-type or mutants of Pa-ExoY activated by F-actin

Reference: publication PMC10553838, “Functional and structural insights into the multi-step activation and catalytic mechanism of bacterial ExoY nucleotidyl cyclase toxins bound to actin-profilin” (PLOS Pathogens, 2023)
